This note sets out measurements from patent US20040152674A1, “Pharmaceutically active compounds and methods of use thereof” (Trustees of Tufts College, priority 1998, published 2004).

Common to all, as to test: MIC by broth dilution method (Table 4)
What all share (assay type): cell-based
What all share (design): unit not given here
A general note: Dilution methods test growth across graded concentrations, often in twofold steps.

One experiment has as its system S. aureus RN4250. The note with it: S. aureus RN4250 Tc^r; 18 hours. How it is done:
(§1) The minimum inhibitory concentration, the lowest concentration of drug that inhibits bacterial growth at 18 hours at their appropriate temperature, is determined by the broth dilution method using L-broth or Muller-Hinton broth. The Muller-Hinton broth was cation-adjusted accordingly and all bacteriological methods were performed as was described by Waitz, J. A., National Commision for Clinical Laboratory Standards Document M7-A2, vol.10, no. 8, pp.13-20, 2nd edition, Villanova, Pa. (1990). The organisms tested represent gram-positive and gram-negative bacterial species that are susceptible to tetracyclines or are resistant to tetracyclines due to the ability to efflux tetracyclines or which confer resistance by ribosomal protection mechanisms. The clinical strains used are either susceptible to tetracyclines or are resistant to them by either drug efflux or ribosomal protection.

Another experiment has as its system S. aureus RN450. As to conditions: S. aureus RN450 Tc^s; 18 hours. How it is done:
as §1

In another experiment the test system is E. faecalis pMV158. The note with it: E. faecalis pMV158 Tc^r; 18 hours. How it is done: as §1
For a further experiment, the system named is E. coli D31m4(pHCM1). As to conditions: E. coli D31m4(pHCM1) Tcr; 18 hours. How it is done:
as §1

The next experiment relates to E. coli D31m4. As to conditions: E. coli D31m4* Tc^r, lipopolysaccharide-deficient mutant; 18 hours. How it is done:
as §1

The subject of the next experiment is S. aureus MRSA5. The note with it: S. aureus MRSA5 Tc^r; 18 hours. How it is done: as §1
The next experiment has as its system E. faecalis pAM211. As to conditions: E. faecalis pAM211 Tc^r; 18 hours. How it is done:
as §1

The next experiment deals with E. faecalis ATCC9790. As to conditions: E. faecalis Tc^r ATCC9790; 18 hours. How it is done:
as §1

In the next experiment the test system is S. aureus ATCC12715. The note with it: S. aureus Tc^r ATCC12715; 18 hours. How it is done: as §1

With `CCCC(C)(C)c1ccc2c(c1O)C(=O)C1=C(O)[C@]3(O)C(=O)C(C(N)=O)=C(O)[C@@H](N(C)C)C3C(O)C1C2C` (stereo partly drawn) [H, [4S-(4alpha,12aalpha)]-9-[2′-(2′-methyl)pentyl]-4-(dimethylamino)-1,4,4a,5,5a,6,11,12a-octahydro-3,5,10,12,12a-pentahydroxy-6-methyl-1,11-dioxo-2-naphthacenecarboxamide], the “Antibacterial activity (minimum inhibitory concentration)” value came to 0.39 with S. aureus RN4250; 0.08 with S. aureus RN450; 0.78 in the experiment with E. faecalis pMV158; 1.56 with E. coli D31m4(pHCM1); 50 in the experiment on E. coli D31m4; 0.39 in the experiment on S. aureus MRSA5. Also, the “Antibacterial activity (minimum inhibitory concentration)” value in the experiment on E. faecalis pAM211, in the experiment on E. faecalis ATCC9790 and in the experiment with S. aureus ATCC12715 was 0.78 each time.

In the case of `CC1c2ccc(C(C)(C)CCCBr)c(O)c2C(=O)C2=C(O)[C@]3(O)C(=O)C(C(N)=O)=C(O)[C@@H](N(C)C)C3C(O)C21` (stereo partly drawn) [I, [4S-(4alpha,12aalpha)]-9-[4′-(1′-bromo-4′-methyl)pentyl]-4-(dimethylamino)-1,4,4a,5,5a,6,11,12a-octahydro-3,5,10,12,12a-pentahydroxy-6-methyl-1,11-dioxo-2-naphthacenecarboxamide], the “Antibacterial activity (minimum inhibitory concentration)” value with S. aureus RN4250 is listed as 0.08; in the experiment on S. aureus RN450, 0.39; in the experiment with E. faecalis pMV158, 0.08; with E. coli D31m4(pHCM1) it was 1.56; with E. coli D31m4, 1.56; in the experiment with S. aureus MRSA5, 0.39. Also, the entries for the “Antibacterial activity (minimum inhibitory concentration)” value in the experiment on E. faecalis pAM211, in the experiment on E. faecalis ATCC9790 and in the experiment on S. aureus ATCC12715 were 0.78, 0.39 and 0.78, respectively.

Regarding `CC1c2ccc(C(C)(C)CCCN(C)C)c(O)c2C(=O)C2=C(O)[C@]3(O)C(=O)C(C(N)=O)=C(O)[C@@H](N(C)C)C3C(O)C21` (stereo partly drawn) [J, [4S-(4alpha,12aalpha)]-9-[4′-(1′-dimethylamino-4′-methyl)pentyl]-4-(dimethylamino)-1,4,4a,5,5a,6,11,12a-octahydro-3,5,10,12,12a-pentahydroxy-6-methyl-1,11-dioxo-2-naphthacenecarboxamide], the “Antibacterial activity (minimum inhibitory concentration)” value in the experiment on S. aureus RN4250, in the experiment with S. aureus RN450, with E. faecalis pMV158, in the experiment on E. coli D31m4(pHCM1), in the experiment with E. coli D31m4 and in the experiment with S. aureus MRSA5 was 50 each time. The “Antibacterial activity (minimum inhibitory concentration)” value with E. faecalis pAM211, with E. faecalis ATCC9790 and in the experiment on S. aureus ATCC12715 was 50 each time.

For `CC1c2ccc(C(C)(C)CCCN3CCCC3)c(O)c2C(=O)C2=C(O)[C@]3(O)C(=O)C(C(N)=O)=C(O)[C@@H](N(C)C)C3C(O)C21` (stereo partly drawn) [K, [4S-(4alpha,12a-alpha)]-9-[4′-(1′-pyrrolidinyl-4′-methyl)pentyl]-4-(dimethylamino)-1,4,4a,5,5a,6,11,12a-octahydro-3,5,10,12,12a-pentahydroxy-6-methyl-1,11-dioxo-2-naphthacenecarboxamide], the “Antibacterial activity (minimum inhibitory concentration)” value is 50 in the experiment on S. aureus RN4250; 25 in the experiment with S. aureus RN450; 25 with E. faecalis pMV158; 50 with E. coli D31m4(pHCM1); 50 in the experiment with E. coli D31m4; 6.25 in the experiment with S. aureus MRSA5. Also, the “Antibacterial activity (minimum inhibitory concentration)” value amounted to 25 in the experiment with E. faecalis pAM211, 25 in the experiment on E. faecalis ATCC9790 and 50 with S. aureus ATCC12715.
